Data reported in US20160153997A1, “OLIGOPEPTIDE SPECIFIC TO COLORECTAL CANCER CELL AND APPLICATION THEREOF” (National Tsing Hua University, priority 2014, published 2016).
“And” between values parts separate entries of the source, which are not always exact repeats. Identical values can stand only once.

Tests used:
Assay in all cases: Capturing ability analysis, peptide-bonded magnetic beads mixed with cells
Assay type in all cases: cell-based
[1] = tested on: human hepatoma cells (HepG2); conditions: human hepatoma cell (HepG2); 2×10^5 cells, room temperature, 25 rpm 30 minutes
Excerpt: (§1) In one embodiment, the peptide sequences of Seq ID: NO. 1 to Seq ID: NO. 3 are respectively bonded to the beads and mixed with different cell lines , respectively, including colorectal cancer cells (HCT-8), colorectal cancer stem cells (CR-CSC), human hepatoma cells (HepG2), human in situ pancreatic cancer cells (BxPC-3), human lung adenocarcinoma cells (A549) and human breast cancer cells (MCF7). Wherein, the beads having peptide sequences are mixed with each cell line at room temperature for 25 rpm 30 minutes, and the cell number of each cell line is 2×10^5. After washing for several times, the number of cells captured with magnetic beads having the above peptide sequences are calculated and the results are shown as Table 1 below.

[2] = tested on: human lung adenocarcinoma cells (A549); conditions: human lung adenocarcinoma cell (A549); 2×10^5 cells, room temperature, 25 rpm 30 minutes
Excerpt: as §1

[3] = tested on: human in situ pancreatic cancer cells (BxPC-3); conditions: human in situ pancreatic cancer cell (BxPC-3); 2×10^5 cells, room temperature, 25 rpm 30 minutes
Excerpt: as §1

[4] = tested on: colorectal cancer cells (HCT-8); conditions: colorectal cancer cell (HCT-8); 2×10^5 cells, room temperature, 25 rpm 30 minutes
Excerpt: as §1

[5] = tested on: colorectal cancer stem cells (CR-CSC); conditions: colorectal cancer stem cell (CR-CSC); 2×10^5 cells, room temperature, 25 rpm 30 minutes
Excerpt: as §1

[6] = tested on: human breast cancer cells (MCF7); conditions: human breast cancer cell (MCF7); 2×10^5 cells, room temperature, 25 rpm 30 minutes
Excerpt: as §1

| Substance | Capturing ability (%) [1] | Capturing ability (%) [2] | Capturing ability (%) [3] | Capturing ability (%) [4] | Capturing ability (%) [5] | Capturing ability (%) [6] |
| --- | --- | --- | --- | --- | --- | --- |
| Seq ID: NO. 1: peptide sequence screened from M13 phage display peptide library, having binding specificity and affinity to HCT-8 or CR-CSC (AELAKLPLF) | 23.60 ± 3.50% | 28.51 ± 7.09% | 3.41 ± 1.14% | 43.30% and 43.40 ± 7.23% | 22.97 ± 4.29% | 12.84 ± 7.67% |
| Seq ID: NO. 2: peptide sequence screened from M13 phage display peptide library, having binding specificity and affinity to HCT-8 or CR-CSC (GAISFDHVHP) | 23.02 ± 2.77% | 34.29 ± 5.22% | 3.13 ± 0.62% | 45.16% and 45.16 ± 7.12% | 20.85 ± 0.61% | 20.45 ± 4.04% |
| Seq ID: NO. 3: peptide sequence screened from M13 phage display peptide library, having binding specificity and affinity to HCT-8 or CR-CSC (MNAKWPIENLMN) | 17.87 ± 6.18% | 16.77 ± 6.49% | 3.58 ± 1.18% | 9.42 ± 2.67% | 49.79% and 49.79 ± 5.34% | 10.68 ± 5.08% |
